Laboratory results as given in patent US9801901B2, “Alginate oligomers for use in overcoming multidrug resistance in bacteria” (priority 2009, dated 2017).
In brackets after ≈: the same amount, converted by molar mass. Read-outs that look alike come from different tables or passages of the source. Marks after values point to notes of the source that are not given here.

Tests used:
[1] = tested on: PA01 Pseudomonas aeruginosa ATCC 15692; assay: MIC assay, two-fold antibiotic dilutions in CAMHB with alginate oligomer, no visible growth; format: cell-based; conditions: Pseudomonas aeruginosa, ATCC15692, Table 4, PA01 non MDR, read-out: MIC
[2] = tested on: V12 5725 (Wales) Klebsiella pneumoniae; assay: MIC assay, CAMHB with alginate oligomer, no visible growth; format: cell-based; conditions: Table 5, V12 MDR Kleb pneu
MDR Providencia stuartii = assay: MIC-assay, Mueller-Hinton broth with G-block alginate, 384-well, OD600 (Table 11); format: cell-based; conditions: Providencia stuartii (IR57 India, V7) MDR
Text: Minimum inhibitory concentration (MICs) of different antibiotics for strains of E. coli and Providencia stuartii displaying MDR phenotypes in the presence of varying concentrations of OligoCF-5/20 (0-10%). (MIC values are expressed in μg ml^−1).

[3] = tested on: Burkholderia cepacia (1322, V23); assay: MIC-assay, Mueller-Hinton broth with G-block alginate, 384-well, OD600; conditions: Table 8, G-block (OligoCF-5/20) 10%
[4] = tested on: strains of Klebsiella pneumoniae displaying MDR phenotypes; assay: MIC-assay, Mueller-Hinton broth with G-block alginate, 384-well, OD600 (Table 10); format: cell-based; conditions: Klebsiella pneumoniae (K3, India, V8) MDR
Text: Minimum inhibitory concentration (MICs) of different antibiotics for strains of Klebsiella pneumoniae displaying MDR phenotypes in the presence of varying concentrations of OligoCF-5/20 (0-10%). (MIC values are expressed in μg ml^−1).

[5] = tested on: Pseudomonas aeruginosa (R22, PSA, V1); assay: MIC-assay, Mueller-Hinton broth with G-block alginate, 384-well, OD600; conditions: Table 8, G-block (OligoCF-5/20) 0%
[6] = tested on: Acinetobacter lwoffii (Egypt, V10); assay: as above
[7] = tested on: Acinetobacter baumannii MDR ACB from Libya (V4); assay: MIC assay, CAMHB with alginate oligomer, no visible growth; format: cell-based; conditions: Acinetobacter baumannii, Table 4, V4 MDR (Libya), read-out: MIC
Text: The study described in Example 1 was repeated with the following strains of bacteria and antibiotics as detailed in Tables 4, 5 and 6.
The study described in Example 1 was repeated with the following strains of Acinetobacter baumannii, antibiotics and M-block alginate oligomer in place of OligoG CF-5/20 as detailed in Table 7. The M-block oligomer is 100% M with a DPn of 15 to 18,

[8] = tested on: Acinetobacter baumannii (Egypt, V9); assay: MIC-assay, Mueller-Hinton broth with G-block alginate, 384-well, OD600
Streptococcus oralis = assay: MIC-assay, Mueller-Hinton broth with G-block alginate, 384-well, OD600 (Table 12); format: cell-based; conditions: Streptococcus oralis (5610, V17) MDR
Text: (§1) Minimum inhibitory concentration (MICs) of different antibiotics for strains of Streptococcus oralis and Staphylococcus aureus (MRSA) displaying MDR phenotypes in the presence of varying concentrations of OligoCF-5/20 (0-10%). (MIC values are expressed in μg ml^−1).

[9] = tested on: Staphylococcus aureus (MRSA) U50; assay: as above; format: cell-based; conditions: MRSA 1040s, U50 MDR
Text: as §1

[10] = tested on: V10 (Egypt) Acinetobacter lwoffii; assay: MIC assay, CAMHB with alginate oligomer, no visible growth; format: cell-based; conditions: Table 5, V10 MDR Acin. lwoff
[11] = tested on: Pseudomonas aeruginosa ATCC 39324, mucoid type strain (R79); assay: as above; format: cell-based; conditions: Pseudomonas aeruginosa, ATCC39324, Table 4, R79 non MDR (muc.), read-out: MIC
[12] = tested on: V9 (Egypt) Acinetobacter baumannii; assay: as above; format: cell-based; conditions: Table 5, V9 MDR Acin. baum
[13] = Table 9, G-block (OligoCF-5/20) 0%
[14] = Table 9, G-block (OligoCF-5/20) 2%
[15] = Table 9, G-block (OligoCF-5/20) 6%
[16] = Table 9, G-block (OligoCF-5/20) 10%
[17] = G-block (OligoCF-5/20) 0%, read-out: MIC
[18] = G-block (OligoCF-5/20) 2%, read-out: MIC

CC[C@H]1OC(=O)[C@H](C)[C@@H](O[C@H]2C[C@@](C)(OC)[C@@H](O)[C@H](C)O2)[C@H](C)[C@@H](O[C@@H]2O[C@H](C)C[C@H](N(C)C)[C@H]2O)[C@](C)(O)C[C@@H](C)C(=O)[C@H](C)[C@@H](O)[C@]1(C)O [Erythromycin]
MIC ([1]; OligoCF-5/20 0G): 128 µg/mL (≈ 174 µM)
MIC ([1]; OligoCF-5/20 +2% G): 64 µg/mL (≈ 87.2 µM)
MIC ([1]; OligoCF-5/20 +6% G): 64 µg/mL (≈ 87.2 µM)
MIC ([1]; OligoCF-5/20 +10% G): 16 µg/mL (≈ 21.8 µM)
MIC ([2]; Klebsiella pneumoniae, OligoCF-5/20 0G, read-out: MIC): 512 µg/mL (≈ 698 µM)
MIC ([2]; OligoCF-5/20 +6% G): 512 µg/mL (≈ 698 µM)
MIC ([2]; OligoCF-5/20 +10% G): 512 µg/mL (≈ 698 µM)
MIC (MDR Providencia stuartii; G-block (OligoCF-5/20) 0%): 32 µg/mL (≈ 43.6 µM)
MIC (MDR Providencia stuartii; G-block (OligoCF-5/20) 2%): 16 µg/mL (≈ 21.8 µM)
MIC (MDR Providencia stuartii; G-block (OligoCF-5/20) 6%): 16 µg/mL (≈ 21.8 µM)
MIC (MDR Providencia stuartii; G-block (OligoCF-5/20) 10%): 16 µg/mL (≈ 21.8 µM)
MIC [3]: 64 µg/mL (≈ 87.2 µM)
MIC ([4]; G-block (OligoCF-5/20) 0%): 128 µg/mL (≈ 174 µM)
MIC ([4]; G-block (OligoCF-5/20) 2%): 128 µg/mL (≈ 174 µM)
MIC ([4]; G-block (OligoCF-5/20) 6%): 128 µg/mL (≈ 174 µM)
MIC ([4]; G-block (OligoCF-5/20) 10%): 128 µg/mL (≈ 174 µM)
MIC [5]: > 512 µg/mL
MIC [6, 13]: 1 µg/mL (≈ 1.36 µM)
MIC [6, 14]: < 1 µg/mL
MIC [6, 15]: < 1 µg/mL
MIC [6, 16]: < 1 µg/mL
MIC ([7]; OligoCF-5/20 0G): 8 µg/mL (≈ 10.9 µM)
MIC ([7]; OligoCF-5/20 +2% G): 2 µg/mL (≈ 2.73 µM)
MIC ([7]; OligoCF-5/20 +6% G): ≤ 1 µg/mL
MIC ([7]; OligoCF-5/20 +10% G): ≤ 1 µg/mL
MIC [8, 13]: 8 µg/mL (≈ 10.9 µM)
MIC [8, 14]: 2 µg/mL (≈ 2.73 µM)
MIC [8, 15]: 1 µg/mL (≈ 1.36 µM)
MIC [8, 16]: < 1 µg/mL
MIC (Streptococcus oralis; [17]): 2 µg/mL (≈ 2.73 µM)
MIC (Streptococcus oralis; [18]): 16 µg/mL (≈ 21.8 µM)
MIC (Streptococcus oralis; G-block (OligoCF-5/20) 6%): 0.0312 µg/mL (≈ 0.0426 µM)
MIC (Streptococcus oralis; G-block (OligoCF-5/20) 10%): 0.0625 µg/mL (≈ 0.0852 µM)
MIC [9, 17]: > 1020 µg/mL
MIC [9, 18]: > 1020 µg/mL
MIC ([9]; G-block (OligoCF-5/20) 6%): 1020 µg/mL (≈ 1400 µM)
MIC ([9]; G-block (OligoCF-5/20) 10%): 512 µg/mL (≈ 698 µM)
MIC ([10]; Acinetobacter lwoffii, OligoCF-5/20 0G, read-out: MIC): < 0.5 µg/mL
MIC ([10]; OligoCF-5/20 +2% G): <0.5 µg/mL
MIC ([10]; OligoCF-5/20 +6% G): <0.5 µg/mL
MIC ([10]; OligoCF-5/20 +10% G): <0.5 µg/mL
MIC ([11]; OligoCF-5/20 0G): 128 µg/mL (≈ 174 µM)
MIC ([11]; OligoCF-5/20 +2% G): 64 µg/mL (≈ 87.2 µM)
MIC ([11]; OligoCF-5/20 +6% G): 32 µg/mL (≈ 43.6 µM)
MIC ([11]; OligoCF-5/20 +10% G): 2 µg/mL (≈ 2.73 µM)
MIC ([12]; Acinetobacter baumannii, OligoCF-5/20 0G, read-out: MIC): 8 µg/mL (≈ 10.9 µM)
MIC ([12]; OligoCF-5/20 +2% G): 4^† μg/ml
MIC ([12]; OligoCF-5/20 +6% G): 1^† μg/ml
MIC ([12]; OligoCF-5/20 +10% G): <0.5^† μg/ml
